Calls of active or inactive are those of the source.
Assays:
[1] = loss of A549 viability via ATP – cell-based, plate reader, dry powder, set 7, cytotoxicity control, dose response (AID 743318); type: functional
[2] = target: T1, Mannose-6-phosphate isomerase (Homo sapiens, UniProt P34949); assay: phosphomannose isomerase inhibition – biochemical, fluorescence intensity, confirmation (AID 1535)
T1 sequence (P34949 whole entry): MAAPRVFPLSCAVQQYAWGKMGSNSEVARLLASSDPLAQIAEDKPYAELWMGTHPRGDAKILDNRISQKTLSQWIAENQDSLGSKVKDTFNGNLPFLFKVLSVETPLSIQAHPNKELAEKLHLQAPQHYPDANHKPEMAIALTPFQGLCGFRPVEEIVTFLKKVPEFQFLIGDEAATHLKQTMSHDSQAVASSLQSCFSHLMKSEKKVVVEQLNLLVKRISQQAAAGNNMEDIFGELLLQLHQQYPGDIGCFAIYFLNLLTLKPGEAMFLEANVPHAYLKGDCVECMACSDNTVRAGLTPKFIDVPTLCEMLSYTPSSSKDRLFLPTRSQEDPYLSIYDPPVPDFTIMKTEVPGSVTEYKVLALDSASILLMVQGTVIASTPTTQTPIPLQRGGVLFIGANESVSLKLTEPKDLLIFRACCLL

[3] = target: Peroxisome proliferator-activated receptor gamma/Nuclear receptor coactivator 3 (Homo sapiens, UniProt P37231); assay: (§1) TR-FRET dose response biochemical High Throughput Screening assay for agonists of the steroid receptor coactivator 3 (SRC-3) recruitment by the peroxisome proliferator-activated receptor gamma (PPAR gamma): non-selective agonists. [Related pubchem assays: 1301 (Confirmation screen.), 1048 (Primary screen.)]; type: functional
[4] = target: Mitogen-activated protein kinase 10 (Homo sapiens, UniProt P53779); assay: Dose response biochemical screening assay for inhibitors of c-Jun N-Terminal Kinase 3 (JNK3). [Related pubchem assays: 746 ]
Phosphomannomutase 2 = Phosphomannomutase 2 (Homo sapiens, UniProt O15305); assay: Counter screen SAR assay for PMM2 inhibitors via a fluorescence intensity assay. [Related pubchem assays (depositor defined):AID1545, AID1574]
[5] = target: Peroxisome proliferator-activated receptor gamma/Nuclear receptor coactivator 1 (Homo sapiens, UniProt P37231); assay: as §1, with “1 (SRC-1)” for “3 (SRC-3)”, “assays (depositor defined):AID1300, AID1808, AID504735, AID631]” for “assays: 1301 (Confirmation screen.), 1048 (Primary screen.)]”; type: protein assay
[6] = target: Peroxisome proliferator-activated receptor gamma/Nuclear receptor coactivator 2 (Homo sapiens, UniProt P37231); assay: TR-FRET dose response biochemical High Throughput Screening assay for agonists of the steroid receptor coactivator 2 (SRC-2) recruitment by the peroxisome proliferator-activated receptor gamma (PPAR gamma): non-selective agonists. [Related pubchem assays: 1297, 1032 ]; type: functional
[7] = target: T2, Low molecular weight phosphotyrosine protein phosphatase (Homo sapiens, UniProt P24666); type: functional; details: read-out: IC50_Mean;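 also: Dose-response confirmation assay measuring inhibition of LMPTP enzyme activity by fluorescence intensity read-out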
T2 sequence (P24666 whole entry): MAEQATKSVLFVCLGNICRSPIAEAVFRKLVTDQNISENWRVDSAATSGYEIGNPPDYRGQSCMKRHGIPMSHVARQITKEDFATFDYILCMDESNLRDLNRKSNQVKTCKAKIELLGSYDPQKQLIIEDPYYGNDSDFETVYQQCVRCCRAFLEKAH

[8] = IC50 of Artemis nuclease activity blockers – biochemical, fluorescence intensity, dose response (AID 720701); type: functional;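 also: Artemis endonuclease enzyme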
[9] = Dd2 malaria parasite growth inhibition potency – SYBR Green, dry powder samples, dose response (AID 1159566); type: functional, cell-based;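 also: potency for growth inhibition with lower SYBR green DNA signal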
[10] = Plasmodium falciparum Dd2 Sybr green parasite growth Measured in Cell-Based and Microorganism Combination System Using Plate Reader - 2153-01_Inhibitor_Dose_DryPowder_Activity_Set3.; type: functional
[11] = toxicity to human hepatoma HepG2 cells – cell-based, cherry-picked samples, cytotoxicity control, dose response (AID 1159577); type: functional
[12] = growth inhibition of PfATP4-mutant resistant parasites – NITD609-resistant line, SYBR Green, dry powder, dose response (AID 1159571); type: functional, cell-based;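 also: parasites synchronized at ring stage by sorbitol before testing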
[13] = growth inhibition of yeast DHODH-expressing 3D7 parasites – SYBR Green, dry powder samples, dose response (AID 1159570); type: functional, cell-based;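 also: parasite growth measured after 72 hours of compound exposure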
[14] = Dd2 parasite growth inhibition in erythrocytes – SYBR Green, dry powder samples, set 9, dose response (AID 1159568); type: functional, cell-based
[15] = toxicity to human HepG2 hepatoma cells – cell-based, plate reader, dry powder samples, cytotoxicity control, dose response (AID 1159569); type: functional;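 also: inhibitor potency with signal falling toward the positive control level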
[16] = P. falciparum Dd2 growth inhibitors, dose response, SYBR Green, cherry-picked samples (AID 1159567); type: functional, cell-based
BJ [17] = assay: BJ-TERT fibroblast viability loss – cell-based, RAS-independent, luminescence, dose response (AID 1933); type: functional; details: Homo sapiens
[18] = Luminescent dose response cell-based high throughput screening assay for inhibitors of the Janus kinase 2 mutant JAK2V617F. [Related pubchem assays: 1446 (Primary screen.), 1521 (Confirmation assay.), 1486 (Counter screen.)]; type: functional
BJ [19] = assay: growth inhibition of engineered Ras-driven BJ cells – cell-based, alamar blue fluorescence, cherrypicked samples, dose response (AID 2631); type: functional; details: Homo sapiens;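 also: confirmatory dose-response assay in RAS-dependent BJ fibroblasts engineered with TERT, LT and ST, with cytotoxicity read by fluorescence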
BJ [20] = assay: BJ-TERT-LT-ST fibroblast viability loss – cell-based, RAS-independent, luminescence, dose response (AID 1935); type: functional; details: Homo sapiens;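 also: BJ fibroblasts immortalized with TERT plus LT and ST oncogenes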
[21] = DRD fibroblast viability loss – cell-based, non-viral oncogenic, luminescence, dose response (AID 1934); type: functional; details: Homo sapiens
BJ [22] = assay: cells; type: functional, cell-based; details: Homo sapiens
[23] = target: Aryl hydrocarbon receptor (Homo sapiens, UniProt P35869); assay: Luminescence-based cell-based high throughput dose response assay for activators of the Aryl Hydrocarbon Receptor (AHR). [Related pubchem assays: 2796 (Primary screen (AHR activators in singlicate)), 2845 (Confirmation screen (AHR activators in triplicate)), 434939 (Counterscreen (PXR activators in triplicate)), 2804 (Summary (AHR activators))]; type: ADME
[24] = target: Heat shock protein HSP 90-alpha (Homo sapiens, UniProt P07900); assay: Luminescence-based dose response biochemical high throughput screening assay for inhibitors of the Heat Shock Protein 90 (HSP90). [Related pubchem assays: 1831 (Summary AID.), 1846 (Confirmation screen.), 1789 (Primary screen.)]
Danio rerio = assay: In Vivo Angiogenesis Dose-Response Confirmation. [Related pubchem assays: 732 (Assay preceding this confirmatory assay.)]; type: functional, organism-based

Chain of Peroxisome proliferator-activated receptor gamma/Nuclear receptor coactivator 1 (P37231 whole entry): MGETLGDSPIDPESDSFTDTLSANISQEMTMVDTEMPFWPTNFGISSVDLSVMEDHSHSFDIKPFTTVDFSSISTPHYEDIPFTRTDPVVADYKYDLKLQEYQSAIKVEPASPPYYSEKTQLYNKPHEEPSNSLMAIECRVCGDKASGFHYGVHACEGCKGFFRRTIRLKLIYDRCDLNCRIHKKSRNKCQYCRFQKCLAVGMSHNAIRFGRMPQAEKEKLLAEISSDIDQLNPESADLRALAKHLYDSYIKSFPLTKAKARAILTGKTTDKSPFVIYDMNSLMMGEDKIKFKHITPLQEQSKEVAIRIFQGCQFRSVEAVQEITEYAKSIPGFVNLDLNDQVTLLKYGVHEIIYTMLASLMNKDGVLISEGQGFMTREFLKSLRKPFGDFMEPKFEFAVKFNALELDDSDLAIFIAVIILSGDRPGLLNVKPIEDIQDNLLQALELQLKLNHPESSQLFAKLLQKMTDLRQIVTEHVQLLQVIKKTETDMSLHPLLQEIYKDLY
Chain of Peroxisome proliferator-activated receptor gamma/Nuclear receptor coactivator 1 (Q15788 whole entry, further chain): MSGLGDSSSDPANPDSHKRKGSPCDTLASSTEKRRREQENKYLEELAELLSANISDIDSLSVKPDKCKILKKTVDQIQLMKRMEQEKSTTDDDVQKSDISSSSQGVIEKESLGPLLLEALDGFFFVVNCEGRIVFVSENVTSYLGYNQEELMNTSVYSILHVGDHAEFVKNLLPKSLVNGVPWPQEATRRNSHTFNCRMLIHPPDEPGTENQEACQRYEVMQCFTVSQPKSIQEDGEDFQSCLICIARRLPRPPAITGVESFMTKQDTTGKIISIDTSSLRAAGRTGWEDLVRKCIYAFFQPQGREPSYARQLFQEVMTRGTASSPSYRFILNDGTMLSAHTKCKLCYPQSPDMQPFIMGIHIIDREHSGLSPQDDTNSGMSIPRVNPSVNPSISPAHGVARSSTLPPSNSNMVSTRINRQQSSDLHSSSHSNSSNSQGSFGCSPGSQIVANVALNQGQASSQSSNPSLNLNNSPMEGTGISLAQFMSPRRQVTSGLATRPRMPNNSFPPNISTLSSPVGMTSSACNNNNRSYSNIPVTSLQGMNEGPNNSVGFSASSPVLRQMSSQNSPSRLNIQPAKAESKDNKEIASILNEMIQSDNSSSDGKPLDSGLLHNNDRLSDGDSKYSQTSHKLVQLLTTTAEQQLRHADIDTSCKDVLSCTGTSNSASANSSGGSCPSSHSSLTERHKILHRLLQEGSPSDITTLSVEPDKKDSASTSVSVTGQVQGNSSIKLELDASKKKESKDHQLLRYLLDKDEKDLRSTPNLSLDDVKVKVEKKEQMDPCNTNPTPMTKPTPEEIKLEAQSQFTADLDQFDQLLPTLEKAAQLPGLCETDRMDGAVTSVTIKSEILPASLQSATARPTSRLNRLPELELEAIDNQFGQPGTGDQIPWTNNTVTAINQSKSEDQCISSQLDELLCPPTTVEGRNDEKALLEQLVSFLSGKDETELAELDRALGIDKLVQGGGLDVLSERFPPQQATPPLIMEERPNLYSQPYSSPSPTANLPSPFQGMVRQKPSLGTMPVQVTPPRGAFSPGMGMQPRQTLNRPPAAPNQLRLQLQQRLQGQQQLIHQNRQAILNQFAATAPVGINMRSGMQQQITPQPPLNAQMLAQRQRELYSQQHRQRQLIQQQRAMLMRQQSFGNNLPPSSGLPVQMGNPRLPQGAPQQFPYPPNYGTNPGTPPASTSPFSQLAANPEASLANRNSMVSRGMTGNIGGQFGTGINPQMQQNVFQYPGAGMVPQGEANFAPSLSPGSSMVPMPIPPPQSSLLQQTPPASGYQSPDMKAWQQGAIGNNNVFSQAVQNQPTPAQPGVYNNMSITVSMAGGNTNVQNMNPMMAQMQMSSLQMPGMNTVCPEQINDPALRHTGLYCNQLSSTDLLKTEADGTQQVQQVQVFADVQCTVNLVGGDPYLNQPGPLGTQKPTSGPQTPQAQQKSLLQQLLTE
Chain of Peroxisome proliferator-activated receptor gamma/Nuclear receptor coactivator 3 (P37231 whole entry): as the sequence (P37231 whole entry) above
Chain of Peroxisome proliferator-activated receptor gamma/Nuclear receptor coactivator 3 (Q9Y6Q9 whole entry, further chain): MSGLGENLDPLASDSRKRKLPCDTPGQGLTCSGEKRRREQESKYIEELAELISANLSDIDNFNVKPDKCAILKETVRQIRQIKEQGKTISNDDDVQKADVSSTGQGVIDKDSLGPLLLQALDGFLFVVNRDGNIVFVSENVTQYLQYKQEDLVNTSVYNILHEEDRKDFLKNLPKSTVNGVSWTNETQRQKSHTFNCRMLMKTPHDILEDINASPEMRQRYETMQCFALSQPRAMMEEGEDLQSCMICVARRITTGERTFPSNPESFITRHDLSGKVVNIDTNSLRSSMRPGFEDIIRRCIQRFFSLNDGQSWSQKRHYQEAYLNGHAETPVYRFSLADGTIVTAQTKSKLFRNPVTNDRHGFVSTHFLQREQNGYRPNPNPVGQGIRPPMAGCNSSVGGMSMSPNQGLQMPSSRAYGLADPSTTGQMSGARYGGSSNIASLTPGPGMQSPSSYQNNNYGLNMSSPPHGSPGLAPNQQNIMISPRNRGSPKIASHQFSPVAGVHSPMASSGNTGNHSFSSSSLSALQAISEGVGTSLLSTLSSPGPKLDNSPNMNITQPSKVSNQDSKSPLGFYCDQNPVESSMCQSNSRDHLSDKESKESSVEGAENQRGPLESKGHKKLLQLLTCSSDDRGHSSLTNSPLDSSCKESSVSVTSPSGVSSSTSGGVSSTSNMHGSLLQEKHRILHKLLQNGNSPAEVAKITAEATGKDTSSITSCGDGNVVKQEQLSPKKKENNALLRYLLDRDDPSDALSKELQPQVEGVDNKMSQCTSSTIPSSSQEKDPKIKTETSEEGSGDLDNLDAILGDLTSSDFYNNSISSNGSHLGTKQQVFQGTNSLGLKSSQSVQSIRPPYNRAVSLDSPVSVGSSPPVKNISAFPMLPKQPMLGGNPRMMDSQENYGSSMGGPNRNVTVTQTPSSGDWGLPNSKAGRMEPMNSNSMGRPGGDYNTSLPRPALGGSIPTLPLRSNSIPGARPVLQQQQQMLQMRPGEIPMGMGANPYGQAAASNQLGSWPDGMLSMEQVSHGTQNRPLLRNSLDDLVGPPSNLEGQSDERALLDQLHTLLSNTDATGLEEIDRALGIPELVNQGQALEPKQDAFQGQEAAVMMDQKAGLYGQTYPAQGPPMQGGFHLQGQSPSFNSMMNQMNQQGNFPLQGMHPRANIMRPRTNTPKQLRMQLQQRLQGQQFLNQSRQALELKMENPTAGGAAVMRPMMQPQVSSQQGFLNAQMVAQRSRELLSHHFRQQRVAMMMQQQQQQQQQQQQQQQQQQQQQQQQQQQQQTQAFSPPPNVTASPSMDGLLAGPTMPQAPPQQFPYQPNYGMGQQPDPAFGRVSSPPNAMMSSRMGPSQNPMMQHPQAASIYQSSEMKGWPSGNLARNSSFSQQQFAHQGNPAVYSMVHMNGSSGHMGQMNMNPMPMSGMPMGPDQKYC
Chain of Phosphomannomutase 2 (O15305 whole entry): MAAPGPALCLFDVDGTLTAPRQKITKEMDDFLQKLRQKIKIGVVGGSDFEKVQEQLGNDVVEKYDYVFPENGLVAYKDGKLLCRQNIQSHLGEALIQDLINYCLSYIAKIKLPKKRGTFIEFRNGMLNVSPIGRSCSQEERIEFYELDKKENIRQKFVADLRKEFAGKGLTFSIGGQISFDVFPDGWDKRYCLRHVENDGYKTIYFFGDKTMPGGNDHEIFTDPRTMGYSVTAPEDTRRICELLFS
Chain of Aryl hydrocarbon receptor (P35869 whole entry): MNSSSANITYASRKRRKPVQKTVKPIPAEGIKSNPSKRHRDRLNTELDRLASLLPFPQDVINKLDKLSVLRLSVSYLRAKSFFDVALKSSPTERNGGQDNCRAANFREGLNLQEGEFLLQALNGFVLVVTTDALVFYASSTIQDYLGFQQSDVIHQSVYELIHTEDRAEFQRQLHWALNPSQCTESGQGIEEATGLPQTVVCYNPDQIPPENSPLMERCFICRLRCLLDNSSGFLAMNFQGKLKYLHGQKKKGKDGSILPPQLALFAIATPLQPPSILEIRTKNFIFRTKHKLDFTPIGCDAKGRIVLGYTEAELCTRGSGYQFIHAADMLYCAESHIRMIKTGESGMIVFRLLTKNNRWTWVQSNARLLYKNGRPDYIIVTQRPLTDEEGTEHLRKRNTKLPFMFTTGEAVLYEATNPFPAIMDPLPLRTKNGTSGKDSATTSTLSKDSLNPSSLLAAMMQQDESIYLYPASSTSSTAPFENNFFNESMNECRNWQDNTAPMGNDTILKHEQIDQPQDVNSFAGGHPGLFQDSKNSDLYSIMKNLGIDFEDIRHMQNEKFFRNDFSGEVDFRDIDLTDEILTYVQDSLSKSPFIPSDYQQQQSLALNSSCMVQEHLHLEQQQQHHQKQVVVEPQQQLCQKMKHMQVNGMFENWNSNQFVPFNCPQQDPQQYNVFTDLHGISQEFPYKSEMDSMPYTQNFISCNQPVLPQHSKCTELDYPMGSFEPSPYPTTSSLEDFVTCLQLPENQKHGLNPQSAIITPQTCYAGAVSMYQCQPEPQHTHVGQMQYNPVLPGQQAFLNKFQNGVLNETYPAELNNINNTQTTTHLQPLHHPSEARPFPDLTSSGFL

For Cc1ccc(C(C)C)c(OCCn2c(=S)[nH]c3cccc(F)c32)c1, the AC50 [1] was 30.2 µM (active).
For Sc1nnc(-c2cccc(Br)c2)o1, the IC50 [2] was > 50 µM (inactive), the EC50 [3] was > 79.4 µM (not active) and the IC50 [4] was > 93.1 µM (not active). For the same compound, the IC50 (Phosphomannomutase 2) was > 100 µM (inactive), the EC50 [5] was 7.33 µM (active) and the EC50 [6] was 3.25 µM (active).
In the case of O=C(Cc1cn2ccsc2n1)Nc1nc2c(s1)CN(Cc1ccccc1)CC2, the IC50 [7] is reported as 44.6 µM (inactive) and the IC50 [8] is reported as > 20 µM (inactive).
For CCCNC(=O)N1[C@H](C#N)[C@H](c2ccc(C#Cc3ccc(F)cc3)cc2)[C@@H]1CO, the AC50 [9] was 0.123 µM (active), the AC50 [10] was 0.15 µM (active) and the AC50 [11] was > 39 µM (inactive). The AC50 [12] was 0.101 µM (active), the AC50 [13] was 3.48 µM (active) and the AC50 [14] was 0.0575 µM (active). For the same compound, the AC50 [15] was 41.4 µM (active) and the AC50 [16] was < 0.3 µM (active).
In the case of CCOc1ccc(Nc2nc(N)nc(CCl)n2)cc1, the EC50 (BJ [17]) is reported as 0.839 µM (inconclusive), the IC50 [18] is reported as 0.597 µM (active) and the EC50 (BJ [19]) is reported as 5.73 µM (active). The EC50 (BJ [20]) was 10.8 µM (inconclusive), the EC50 [21] was 0.694 µM (active) and the EC50 (BJ [22]) was 1.8 µM (active).
For CCOCC(=O)Nc1cccc(-c2nc3cccnc3s2)c1C, the EC50 [23] was 4.22 µM (active).
In the case of COC(=O)c1ccc(NC(=O)c2ccc(C)cc2)o1, the IC50 [24] is reported as > 60 µM (not active).
In the case of O=C1C(c2c(O)[nH]c3ccc(F)cc23)=Nc2ccccc21, the IC50 (Danio rerio) is reported as 2.17 µM (active).

Source: ChEMBL document CHEMBL1201862, “PubChem BioAssay data set” (2004)
